The results in this text go back to patent US20100152165A1, “CARBOXYLIC ACID DERIVATIVES” (priority 2006, published 2010).

By pEC50 is commonly meant −log10 of the EC50, conventionally taken in molar units.

pEC50: −log10 of the molar value.

In one assay the target is T1, human GPR40 (Homo sapiens, UniProt O14842).
T1 construct: expressed in transfected cells
The assay can be described thus: GPR40 agonist activity measurement (FLIPR, intracellular calcium). In kind it is cell-based. The note with it: human GPR40-expressed CHO cell strain; fluorescence intensity change one minute after measurement. From the text:
Test Method 1: GPR40 Agonist Activity Measurement
i) Cloning of Human GPR40
In accordance with the following procedure, complete length sequence of GPR40 was obtained by a PCR method using a human genomic DNA (Clontech) as the template.
An oligonucleotide consisting of the nucleotide sequence represented by SEQ ID NO:1 was used as the forward primer, and an oligonucleotide consisting of the nucleotide sequence represented by SEQ ID NO:2 as the reverse primer. In this connection, a nucleotide sequence containing a XbaI recognition sequence is added to the […] of each of the aforementioned forward primer and reverse primer. In the PCR, a cycle consisting of 94° C. (15 seconds)/55° C. (30 seconds)/72° C. (1 minute) was repeated 30 times using a Taq DNA polymerase (Ex Taq DNA polymerase; Takara Bio) in the presence of 5% dimethyl sulfoxide (DMSO). As a result, a DNA fragment of about 0.9 kbp was amplified. This DNA fragment was digested with XbaI and then inserted into the XbaI site of a plasmid pEF-BOS-dhfr (Nucleic Acids Research, 18, 5322, 1990) to obtain a plasmid pEF-BOS-dhfr-GPR40.
Nucleotide sequence of GPR40 gene in the plasmid pEF-BOS-dhfr-GPR40 was determined by the dideoxy terminator method using a DNA sequencer (ABI 377 DNA Sequencer; Applied Biosystems). Nucleotide sequence of the GPR40 gene was as the nucleotide sequence represented by SEQ ID NO:3.
ii) Preparation of GPR40 Stable Expression Cell
A CHO dhfr cell (a dihydrofolate reductase (dhfr) gene-deficient CHO cell) was used as the cell for expressing GPR40 protein. In addition, the plasmid pEF-BOS-dhfr-GPR40 obtained in the aforementioned i) was used as the expression plasmid for expressing the GPR40 protein. The CHO dhfr cell in 10% fetal calf serum (FCS)-containing aMEM medium was inoculated into a 6 well plate and cultured overnight to a stage of 80 to 90% confluent, and then gene transfer of 2 μg per well of the plasmid pEF-BOS-dhfr-GPR40 was carried out using a transfection reagent (Lipofectamine 2000; Invitrogen). After 24 hours of the culturing since the gene transfer, the cells were diluted and inoculated again. […] After 20 days of culturing, the thus formed colonies of cells were individually recovered and cultured to obtain CHO cells stably expressing GPR40. Cells showing high reactivity for integral ligands oleic acid and linoleic acid were selected from them.
iii) GPR40 Agonist Activity Measurement
This test was measured by FLIPR (registered trade mark, Molecular Device) using change in the intracellular calcium concentration as the index. The test method is shown below.
A human GPR40-expressed CHO cell strain was inoculated in 6×10^3 cells per well portions into a 384 well black plate (Becton-Dickinson). A Calcium-3 assay kit (Molecular Device) was used as the […] and dissolved in 10 ml per bottle of HBSS-HEPES buffer (pH 7.4, 1×HBSS, 20 mM HEPES, Invitrogen). A 35.68 mg portion of probenecid (Sigma) was dissolved in 250 μl of 1 M NaOH and then adjusted by adding 250 μl of HBSS-HEPES buffer. The fluorescence pigment solution was prepared by mixing 16 ml of HBSS-HEPES buffer, 640 μl of the fluorescence pigment and 32 μl of probenecid, per plate. The medium in the plate was discarded, and the fluorescence pigment solution was dispensed in 40 μl per well portions and incubated at room temperature for 2 hours. Each compound to be tested was dissolved in DMSO, diluted with HBSS-HEPES buffer and then dispensed in 10 μl portions into the plate to start the reaction and measure change in the intracellular calcium concentration by FLIPR. EC50 values of the compounds to be tested were calculated from the dose-response curve of fluorescence intensity changes one minute after the measurement.
In general terms: Calcium assays in cells follow changes in intracellular calcium, usually with a dye or a luminescent sensor.

The subject of the next assay is normal mice. The assay can be described thus: Normal mice single administration oral glucose tolerance test. The class given is in vivo. The note with it: male ICR mice; 10 mg/kg oral 30 minutes before glucose (2 g/kg) loading; at 30 minutes of glucose loading, based on control group. The method, then:
Test Method 3: Normal Mice Single Administration Oral Glucose Tolerance Test
This test examined on the blood glucose suppressive action of compounds to be tested after glucose loading using normal mice. Male ICR mice (6 weeks of age) were reared for 1 week in advance, subjected to overnight fasting and then used as animals to be tested. Each compound to be tested was prepared into a 0.5% methyl cellulose suspension and orally administered at a dose of 10 mg/kg 30 minutes before the glucose (2 g/kg) loading. In the control group, 0.5% methyl cellulose was administered. Blood glucose decreasing ratio (%) at the time of 30 minutes of glucose loading was calculated based on the control group.

In a further assay the test system is MIN6 cell. The assay can be described thus: Insulin secretion promoting action using MIN6 cell. The class given is cell-based, mouse. The note with it: relative activity value at 1 μM of compound, control (DMSO) 100%; KRB-HEPES with 2.8 mM or 22.4 mM glucose, 37° C. 2 hours. The protocol:
Test Method 2: Insulin Secretion Promoting Action using MIN6 Cell
In this test, the insulin secretion promoting action of compounds to be tested was examined using a mouse pancreatic β cell strain, MIN6 cell. The test method is shown below.
The MIN6 cell was inoculated onto a 96 well plate to a density of 5×10^4 cells/well (200 μl). As the medium, DMEM medium (25 mM glucose) containing 10% FBS, 55 μM of 2-mercaptoethanol, 100 U/ml of penicillin and 100 μg/ml of streptomycin was used. Two days thereafter, the medium was removed using an aspirator, and the plate was once washed with 200 μl of KRB-HEPES (116 mM NaCl, 4.7 mM KCl, 1.2 mM KH2PO4, 1.2 mM MgSO4, 0.25 mM CaCl2, 25 mM NaHCO3, 0.005% FFA Free BSA, 24 mM HEPES (pH 7.4)) containing 2.8 mM glucose, which had been warmed up to 37° C., and again filled with 200 μl of the same buffer and incubated at 37° C. for 1 hour. After removing the aforementioned buffer using an aspirator, this was again washed with the buffer (200 μl), and then a predetermined concentration of each compound to be tested was added to KRB-HEPES containing 2.8 mM or 22.4 mM of glucose, added in 100 μl portions to respective wells and incubated at 37° C. for 2 hours. The aforementioned samples were collected and diluted 100 times, and the insulin concentration was determined using an insulin RIA kit (Amersham). […]

T1 sequence (O14842 whole entry R211H): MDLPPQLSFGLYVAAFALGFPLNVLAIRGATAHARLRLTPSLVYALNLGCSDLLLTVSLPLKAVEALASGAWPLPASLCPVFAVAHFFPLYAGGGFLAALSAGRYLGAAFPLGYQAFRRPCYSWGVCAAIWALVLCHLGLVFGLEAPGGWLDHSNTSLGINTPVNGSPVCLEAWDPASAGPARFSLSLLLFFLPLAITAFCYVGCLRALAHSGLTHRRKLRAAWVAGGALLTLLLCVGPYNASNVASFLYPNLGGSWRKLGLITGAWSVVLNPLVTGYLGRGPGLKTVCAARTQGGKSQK

For the compound `O=C(O)[C@@H]1C[C@H]1c1ccc(NCc2cccc3c2CCCN3CCOc2ccccc2)cc1` [Example 455], the pEC50 at human GPR40 was 6.44.

For the compound `O=C(O)CCc1ccc(NCc2cccc3c2CCCN3CCc2ccccc2)cc1F` [Example 89], the “Blood glucose decreasing ratio” value with normal mice came out at 21%. Besides, the pEC50 on human GPR40 is 6.21. For the compound `CCCN1CCCc2cccc(CNc3ccc(CCC(=O)[O-])c(F)c3)c21.[Na+]` [Example 57], the “Insulin secretion promoting action” value in the assay with MIN6 cell was found to be 167%. Besides, the negative-log EC50 (pEC50) at human GPR40 is 7.01.

Regarding `O=C(O)CCc1ccc(NCc2ccc3c(c2)N(c2ccccc2)CCC3)cc1F` [Example 86], at human GPR40, the pEC50 is 7.72. The same measure, in the same setting: next, `CC(=O)N1CCCc2ccc(COc3ccc(CCC(=O)O)c(F)c3)cc21` [Example 74]: 7.12.

As to `Cc1cccc(N2CCCc3ccc(CNc4ccc(CCC(=O)O)c(F)c4)c(C)c32)c1` [Example 215], the pEC50 at human GPR40 was 6.49.

As to `CCCN1CCCc2c(CNc3ccc(CCC(=O)O)c(F)c3)cccc21` [Example 87], the pEC50 at human GPR40 was 7.09. Take `O=C(O)CCc1ccc(NCc2cccc3c2CCCN3CCOc2ccccc2)nc1` [Example 437]: the pEC50 on human GPR40 is 6.14.

On to `COc1ccccc1CCN1CCCc2ccc(CNc3ccc(CCC(=O)O)c(F)c3)c(C)c21` [Example 188], for which the “Blood glucose decreasing ratio” value in the assay with normal mice amounted to 24%. In addition, the negative logarithm of the EC50 (pEC50) at human GPR40 is 7.44.

Turning to `O=C(O)CCc1ccc(NCc2cccc3c2CCCN3CCOc2ccccc2)cc1F` [Example 104], the “Insulin secretion promoting action” value in the assay with MIN6 cell came out at 162%. Further, the “Blood glucose decreasing ratio” value with normal mice came out at 20%. Besides, at human GPR40, the pEC50 was 6.38. `Cc1c(CNc2ccc(CCC(=O)O)c(F)c2)ccc2c1N(c1ccc(C(F)(F)F)cc1)CCC2` [Example 211]: at human GPR40, the pEC50 is 6.03. Still for that read-out and setting: next, `Cc1ccc(CNc2ccc(CCC(=O)O)c(F)c2)c2c1N(CCOc1ccccc1)CCC2` [Example 424]: 6.89. In the case of `Cc1c(CNc2ccc(CCC(=O)[O-])c(F)c2)ccc2c1N(c1ccccn1)CCC2.[Na+]` [Example 453], the “Blood glucose decreasing ratio” value in the assay with normal mice is 24%. At human GPR40, the pEC50 is 7.60. On to `O=C(O)CCc1ccc(OCc2ccc3c(c2)N(CCC(F)(F)F)CCC3)cc1F` [Example 73], for which, on human GPR40, the pEC50 was 7.14. Same read-out and setting: next, `COc1ccccc1OCCN1CCCc2c(CNc3ccc(CCC(=O)O)c(F)c3)cccc21` [Example 176]: 7.04.
